Laboratory results from the supplement of paper PMC4862054.

Tests used:
Assay in all cases: normalised viability (% of control), CellTiter-Blue; higher = more viable cells (about 100 = DMSO control)
MDA-MB-453 [1] = conditions: 10 nM; incubation time: 72 h
Method: (§1)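 DSRT, CellTiter-Blue viability, 72 h incubation. Signal is normalised to DMSO and benzethonium chloride controls. Value is the normalised response at dose 3.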

SK-BR-3 [2] = conditions: 100 nM; incubation time: 72 h
Method: as §1

CAL-148 [3] = conditions: 10 nM; incubation time: 72 h
Method: as §1

MDA-MB-231 [4] = conditions: 100 nM; incubation time: 72 h
Method: as §1

CAL-51 [5] = conditions: 10 nM; incubation time: 72 h
Method: as §1

HCC1599 [6] = conditions: 100 nM; incubation time: 72 h
Method: as §1

HCC1937 [7] = conditions: 100 nM; incubation time: 72 h
Method: as §1

CAL-120 [8] = conditions: 100 nM; incubation time: 72 h
Method: as §1

DU-4475 [9] = conditions: 10 nM; incubation time: 72 h
Method: as §1

HCC1143 [10] = conditions: 100 nM; incubation time: 72 h
Method: as §1

MDA-MB-468 [11] = conditions: 100 nM; incubation time: 72 h
Method: as §1

BT-474 [12] = conditions: 100 nM; incubation time: 72 h
Method: as §1

CAL-85-1 [13] = conditions: 10 nM; incubation time: 72 h
Method: as §1

MDA-MB-436 [14] = conditions: 100 nM; incubation time: 72 h
Method: as §1

MFM-223 [15] = conditions: 100 nM; incubation time: 72 h
Method: as §1

Hs578T [16] = conditions: 100 nM; incubation time: 72 h
Method: as §1

HDQ-P1 [17] = conditions: 10 nM; incubation time: 72 h
Method: as §1

BT-549 [18] = conditions: 100 nM; incubation time: 72 h
Method: as §1

MDA-MB-453 [19] = conditions: incubation time: 72 h
In short: (§2)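 The reported quantity is normalised viability at a single listed concentration of the series. Compound in 5 µl medium was pre-dispensed into 384-well plates and 20 µl of breast cancer cell suspension was added for 72 h. A 2 h, 37 °C CellTiter-Blue step (2.5 µl) preceded fluorescence reading at 560/590 nm, and plates were normalised to vehicle (100) and a positive kill control (0).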

SK-BR-3 [20] = conditions: incubation time: 72 h
In short: as §2

CAL-148 [21] = conditions: incubation time: 72 h
In short: as §2

MDA-MB-231 [22] = conditions: incubation time: 72 h
In short: as §2

CAL-51 [23] = conditions: incubation time: 72 h
In short: as §2

HCC1599 [24] = conditions: incubation time: 72 h
In short: as §2

HCC1937 [25] = conditions: incubation time: 72 h
In short: as §2

CAL-120 [26] = conditions: incubation time: 72 h
In short: as §2

DU-4475 [27] = conditions: incubation time: 72 h
In short: as §2

HCC1143 [28] = conditions: incubation time: 72 h
In short: as §2

MDA-MB-468 [29] = conditions: incubation time: 72 h
In short: as §2

BT-474 [30] = conditions: incubation time: 72 h
In short: as §2

CAL-85-1 [31] = conditions: incubation time: 72 h
In short: as §2

MDA-MB-436 [32] = conditions: incubation time: 72 h
In short: as §2

MFM-223 [33] = conditions: incubation time: 72 h
In short: as §2

Hs578T [34] = conditions: incubation time: 72 h
In short: as §2

HDQ-P1 [35] = conditions: incubation time: 72 h
In short: as §2

BT-549 [36] = conditions: incubation time: 72 h
In short: as §2

C[C@@H](CN1CC(=O)NC(=O)C1)N1CC(=O)NC(=O)C1 [Dexrazoxane]
Conditions | normalised viability [%]
BT-474 [12] | 107
BT-549 [18] | 78.5
CAL-51 [5] | 95.6
CAL-85-1 [13] | 110
CAL-120 [8] | 91.8
CAL-148 [3] | 85
DU-4475 [9] | 110
HCC1143 [10] | 88.6
HCC1599 [6] | 124
HCC1937 [7] | 103
HDQ-P1 [17] | 91
Hs578T [16] | 89
MDA-MB-231 [4] | 96.6
MDA-MB-436 [14] | 101
MDA-MB-453 [1] | 94.6
MDA-MB-468 [11] | 109
MFM-223 [15] | 93.3
SK-BR-3 [2] | 61

normalised viability [%]
Conditions | 3 nM | 10 nM | 30 nM | 100 nM | 1000 nM | 10000 nM
BT-474 [30] | – | 100 | – | – | 101 | 114
BT-549 [36] | – | 87.2 | – | – | 79.2 | 76.8
CAL-51 [23] | 93.9 | – | 96.1 | 92.8 | – | –
CAL-85-1 [31] | 98.4 | – | 93.7 | 96.7 | – | –
CAL-120 [26] | – | 90.1 | – | – | 100 | 100
CAL-148 [21] | 84.4 | – | 92.6 | 91.5 | – | –
DU-4475 [27] | 103 | – | 97.4 | 104 | – | –
HCC1143 [28] | – | 88 | – | – | 94.5 | 99.6
HCC1599 [24] | – | 123 | – | – | 93.3 | 115
HCC1937 [25] | – | 99.1 | – | – | 82 | 92.3
HDQ-P1 [35] | 108 | – | 107 | 44.3 | – | –
Hs578T [34] | – | 87.7 | – | – | 88.8 | 92.1
MDA-MB-231 [22] | – | 95 | – | – | 96.6 | 107
MDA-MB-436 [32] | – | 91.8 | – | – | 95.8 | 95.6
MDA-MB-453 [19] | 104 | – | 103 | 101 | – | –
MDA-MB-468 [29] | – | 101 | – | – | 97.4 | 100
MFM-223 [33] | – | 95.2 | – | – | 91.2 | 93
SK-BR-3 [20] | – | 93.8 | – | – | 105 | 103
